# Where a name gives a salt, the structure may show the parent alone.
# How the values were obtained:
# HL-60 = system: HL-60; set-up: method as in PMID 20411988; settings: sensitive promyelocytic leukemia; cited from earlier work
# HL-60/VCR = system: HL-60/VCR; set-up: method as in PMID 20411988; settings: drug-resistant promyelocytic leukemia; cited from earlier work
# Leishmania amazonensis = system: Leishmania amazonensis; set-up: method as in PMID 19962891; settings: cited from earlier work
# T. cruzi amastigotes = system: T. cruzi amastigotes; set-up: method as in PMID 22727447; settings: cited from earlier work
# A375 = system: A375; set-up: method as in doi:10.1134/S1070363218050304; settings: cited from earlier work
# ACHN = system: ACHN; set-up: method as in doi:10.1134/S1070363218050304; settings: cited from earlier work
# MCF-7 = system: MCF-7; set-up: method as in doi:10.1134/S1070363218050304; settings: cited from earlier work
# T. cruzi [1] = system: T. cruzi; set-up: method as in PMID 22217867; settings: cited from earlier work
# Leishmania donovani = system: Leishmania donovani; set-up: method as in PMID 22217867; settings: cited from earlier work
# [2] = system: Trypanosoma brucei rhodesiense; set-up: method as in PMID 22217867; settings: cited from earlier work
# L. donovani = system: L. donovani; set-up: method as in PMID 15142541; settings: cited from earlier work
# Vero = system: Vero; set-up: method as in PMID 15142541; settings: cited from earlier work
# PC3 = system: PC3; set-up: method as in PMID 15142541; settings: cited from earlier work
# T. brucei = system: T. brucei; set-up: method as in PMID 15142541; settings: cited from earlier work
# FEPS (K562/DNR) [3] = system: FEPS (K562/DNR); set-up: method as in PMID 32229586; settings: reference drugs; cited from earlier work
# K562 = system: K562; set-up: method as in PMID 32229586; settings: reference drugs; cited from earlier work
# FEPS (K562/DNR) [4] = assay: MTT cytotoxicity to MDR CML cell line FEPS; assay type: cell-based, human; settings: reference drugs, FEPS/K562, ratio of EC50 values from ref 64
# Procedure: (§1) The CML cell lines K562, Lucena-1 (K562/VCR), and FEPS (K562/DNR) were cultured in RPMI-1640 medium supplemented with 25 mM HEPES and 2 g L^−1 sodium bicarbonate adjusted to pH 7.4 with NaOH, 100 U penicillin and […] streptomycin. All media were supplemented with 10% FBS. Dr. Vivian M. Rumjanek (Instituto de Bioquímica Médica, UFRJ, Brazil) kindly donated Lucena-1 and FEPS cells. Briefly, K562 cells were exposed to increasing concentrations of the chemotherapeutic drugs vincristine sulfate (VCR) and daunorubicin hydrochloride (DNR) (both from Sigma-Aldrich), as described previously. Lucena-1 (K562/VCR) and FEPS (K562/DNR) cells were cultured in the presence of either 60 nM VCR or 500 nM DNR to maintain the MDR phenotypes. For subcultures, cells were harvested every three days followed by washing with cold FBS, and a final concentration of 2 × 10^4 cells mL^−1 was maintained at 37 °C in 5% CO2.
# (§2) Cell viability was determined by the 3-(4,5-dimethylthiazol-2-yl)-2,5-diphenyltetrazolium (MTT) colorimetric assay. CML cells (2 × 10^4 cells·mL^−1) were incubated for 72 h at 37 °C, followed by treatment with compounds at a range of concentrations (100–1 μM). Negative controls were prepared with 0.5% DMSO. An MTT salt solution was added to each well to a final concentration of 0.5 g·L^−1, and plates were incubated at 37 °C in 5% CO2 for 3 h. After centrifugation, 200 μL DMSO was added to dissolve the dark-blue formazan crystals formed by MTT reduction. Absorbance was measured on a microplate reader at 570 nm, which is directly proportional to formazan contents and indicative of living cells.
# (§3) The percent cell or parasite viability was calculated by the formula: % viability = [(A − P)/(N − P)] × 100, A = absorbance of specific well, P = positive control, N = negative control. Determination of half-maximal effective concentrations (EC50), calculated by logarithmic regression, and significance analysis (p < 0.05), using ANOVA and Dunnett’s test, by GraphPad Prism 7.0 software. The results are expressed as the mean and standard deviation (SD) of three independent experiments.
# Lucena-1 (K562/VCR) [5] = assay: cells; assay type: cell-based, human; settings: reference drugs, Lucena-1/K562, ratio of EC50 values from ref 64
# Procedure: as §1, §2, §3
# Lucena-1 (K562/VCR) [6] = system: Lucena-1 (K562/VCR); set-up: method as in PMID 32229586; settings: reference drugs; cited from earlier work
# T. cruzi trypomastigotes = system: T. cruzi trypomastigotes; set-up: method as in PMID 23006639; settings: cited from earlier work
# T. cruzi [7] = system: T. cruzi; set-up: method as in PMID 23006639; settings: cited from earlier work
compound,measurement,setting,value
COc1cccc(/C=C/C(=O)Nc2cc(OC)c(OC)c(OC)c2)c1 [Compound 2],IC50,HL-60,3.1 µM
same,IC50,HL-60/VCR,11.6 µM
C=COc1cc(OC)c(C(=O)/C=C/c2ccncc2)c(OC=C)c1 [Compound 3],IC50,Leishmania amazonensis,0.6 µM
O=C(/C=C/c1ccc2c(c1)OCO2)c1cccs1 [Compound 4],IC50,T. cruzi amastigotes,5.6 µM
COc1cc(-c2nc(-c3c(Cl)nc4sc(C)nn34)no2)cc(OC)c1OC [Compound 6],IC50,A375,1.22 µM
same,IC50,ACHN,0.11 µM
same,IC50,MCF-7,0.23 µM
Cc1ccc(-c2noc(CN3N=NC4C(=O)N(c5ccccc5)C(=O)C43)n2)cc1 (centres unmarked) [Compound 7],IC50,T. cruzi [1],100 µM
same,IC50,Leishmania donovani,5.7 µM
same,IC50,[2],21.6 µM
N#CSCc1nc(-c2ccc(Cl)c(Cl)c2)no1 [Compound 8],IC50,L. donovani,2.3 µM
same,IC50,Vero,70 µM
same,IC50,PC3,3.9 µM
same,IC50,T. brucei,5.2 µM
"COc1cccc2c1C(=O)c1c(O)c3c(c(O)c1C2=O)C[C@@](O)(C(C)=O)C[C@@H]3O[C@H]1C[C@H](N)[C@H](O)[C@H](C)O1 [DNR, daunorubicin hydrochloride]",EC50,FEPS (K562/DNR) [3],6.45 ± 1.27 µM
same,EC50,K562,0.082 ± 0.001 µM
same,RR (relative resistance) FEPS,FEPS (K562/DNR) [4],78.6
same,RR (relative resistance) Lucena-1,Lucena-1 (K562/VCR) [5],37.3
same,EC50,Lucena-1 (K562/VCR) [6],3.06 ± 0.87 µM
"CC[C@]1(O)C[C@H]2CN(CCc3c([nH]c4ccccc34)[C@@](C(=O)OC)(c3cc4c(cc3OC)N(C=O)[C@H]3[C@@](O)(C(=O)OC)[C@H](OC(C)=O)[C@]5(CC)C=CCN6CC[C@]43[C@@H]65)C2)C1 [VCR, vincristine sulfate]",EC50,FEPS (K562/DNR) [3],1.05 ± 0.07 µM
same,EC50,K562,0.054 ± 0.005 µM
same,RR (relative resistance) FEPS,FEPS (K562/DNR) [4],19.4
same,RR (relative resistance) Lucena-1,Lucena-1 (K562/VCR) [5],15.7
same,EC50,Lucena-1 (K562/VCR) [6],0.85 ± 0.12 µM
O=C(NN=Cc1ccc2c(c1)OCO2)c1nc(-c2ccc(Cl)cc2)no1 [conjugate 9],IC50,T. cruzi trypomastigotes,3.5 µM
same,effect on parasitemia in infected mice,T. cruzi [7],reduce parasitemia

# Source: publication PMC9787607, “A Novel Protocol for the Synthesis of 1,2,4-Oxadiazoles Active against Trypanosomatids and Drug-Resistant Leukemia Cell Lines” (Tropical Medicine and Infectious Disease, 2022)
